Reference: ChEMBL document CHEMBL5291721, “A preclinical secondary pharmacology resource illuminates target-adverse drug reaction associations of marketed drugs” (Nat Commun, 2023)

How the values were obtained:
[1] = biological target: 5-hydroxytryptamine receptor 2B (Homo sapiens, UniProt P41595); format: functional, cell-based
[2] = biological target: T1, Muscarinic acetylcholine receptor M2 (Homo sapiens, UniProt P08172)
T1 sequence (P08172 whole entry): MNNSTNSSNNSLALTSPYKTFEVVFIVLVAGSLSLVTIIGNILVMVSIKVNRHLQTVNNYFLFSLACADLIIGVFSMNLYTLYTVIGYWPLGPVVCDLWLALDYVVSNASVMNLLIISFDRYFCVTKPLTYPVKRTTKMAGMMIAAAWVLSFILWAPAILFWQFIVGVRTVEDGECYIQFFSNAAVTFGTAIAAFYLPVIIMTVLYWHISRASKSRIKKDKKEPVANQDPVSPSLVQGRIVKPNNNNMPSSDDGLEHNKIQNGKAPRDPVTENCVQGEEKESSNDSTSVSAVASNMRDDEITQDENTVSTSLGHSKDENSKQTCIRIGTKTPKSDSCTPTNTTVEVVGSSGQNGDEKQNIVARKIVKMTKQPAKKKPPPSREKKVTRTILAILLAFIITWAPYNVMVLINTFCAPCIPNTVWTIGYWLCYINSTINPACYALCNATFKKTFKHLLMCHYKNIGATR

[3] = biological target: Prostaglandin G/H synthase 1 (Homo sapiens, UniProt P23219); format: functional
[4] = biological target: Sodium-dependent dopamine transporter (Homo sapiens, UniProt Q01959)
[5] = biological target: Voltage-gated inwardly rectifying potassium channel KCNH2 (Homo sapiens, UniProt Q12809); format: functional; settings: read-out: AC50
[6] = biological target: Prothrombin (Homo sapiens, UniProt P00734); format: functional
[7] = biological target: T2, Thromboxane A2 receptor (Homo sapiens, UniProt P21731); format: functional, cell-based
T2 sequence (P21731 whole entry): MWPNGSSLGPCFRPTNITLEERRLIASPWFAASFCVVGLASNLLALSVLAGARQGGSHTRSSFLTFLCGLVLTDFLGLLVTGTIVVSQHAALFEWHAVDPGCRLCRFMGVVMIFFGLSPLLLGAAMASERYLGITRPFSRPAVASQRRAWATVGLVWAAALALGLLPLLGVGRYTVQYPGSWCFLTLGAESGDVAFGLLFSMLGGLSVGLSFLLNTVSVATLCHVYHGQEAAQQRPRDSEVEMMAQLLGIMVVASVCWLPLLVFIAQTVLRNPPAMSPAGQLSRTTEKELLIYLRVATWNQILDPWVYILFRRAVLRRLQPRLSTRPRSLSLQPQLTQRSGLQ

[8] = biological target: T3, Estrogen receptor (Homo sapiens, UniProt P03372)
T3 sequence (P03372 whole entry): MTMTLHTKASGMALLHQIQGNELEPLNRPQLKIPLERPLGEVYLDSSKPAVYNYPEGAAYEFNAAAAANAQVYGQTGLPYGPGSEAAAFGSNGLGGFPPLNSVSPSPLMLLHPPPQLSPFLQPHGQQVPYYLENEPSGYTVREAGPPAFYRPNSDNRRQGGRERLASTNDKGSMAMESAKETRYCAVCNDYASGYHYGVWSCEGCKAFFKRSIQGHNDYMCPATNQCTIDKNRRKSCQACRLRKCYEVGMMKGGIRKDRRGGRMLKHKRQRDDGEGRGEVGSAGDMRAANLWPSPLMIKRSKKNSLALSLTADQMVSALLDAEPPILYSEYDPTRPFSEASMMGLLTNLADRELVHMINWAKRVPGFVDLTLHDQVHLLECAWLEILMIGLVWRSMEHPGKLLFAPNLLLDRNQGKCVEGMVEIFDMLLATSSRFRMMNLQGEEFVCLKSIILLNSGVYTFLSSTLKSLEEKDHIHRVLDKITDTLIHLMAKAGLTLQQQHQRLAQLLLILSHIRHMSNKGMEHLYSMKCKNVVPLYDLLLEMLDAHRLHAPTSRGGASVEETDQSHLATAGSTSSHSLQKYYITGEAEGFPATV

[9] = biological target: T4, Alpha-1A adrenergic receptor (Homo sapiens, UniProt P35348); format: functional, cell-based
T4 sequence (P35348 whole entry): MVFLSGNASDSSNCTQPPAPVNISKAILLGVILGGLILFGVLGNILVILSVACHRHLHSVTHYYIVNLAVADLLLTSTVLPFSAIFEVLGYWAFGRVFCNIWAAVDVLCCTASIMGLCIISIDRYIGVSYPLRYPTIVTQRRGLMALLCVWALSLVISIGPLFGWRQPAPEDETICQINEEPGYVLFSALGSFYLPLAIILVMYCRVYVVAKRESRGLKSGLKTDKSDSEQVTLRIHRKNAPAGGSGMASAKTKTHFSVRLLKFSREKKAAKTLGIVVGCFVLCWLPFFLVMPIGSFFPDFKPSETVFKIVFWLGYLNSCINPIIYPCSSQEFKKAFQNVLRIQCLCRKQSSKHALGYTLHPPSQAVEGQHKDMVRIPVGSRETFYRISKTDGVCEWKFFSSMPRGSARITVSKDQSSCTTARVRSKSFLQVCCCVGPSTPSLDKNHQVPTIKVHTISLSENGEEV
Note: assay procedure not described here.

Sequence of Sodium-dependent dopamine transporter (Q01959 whole entry): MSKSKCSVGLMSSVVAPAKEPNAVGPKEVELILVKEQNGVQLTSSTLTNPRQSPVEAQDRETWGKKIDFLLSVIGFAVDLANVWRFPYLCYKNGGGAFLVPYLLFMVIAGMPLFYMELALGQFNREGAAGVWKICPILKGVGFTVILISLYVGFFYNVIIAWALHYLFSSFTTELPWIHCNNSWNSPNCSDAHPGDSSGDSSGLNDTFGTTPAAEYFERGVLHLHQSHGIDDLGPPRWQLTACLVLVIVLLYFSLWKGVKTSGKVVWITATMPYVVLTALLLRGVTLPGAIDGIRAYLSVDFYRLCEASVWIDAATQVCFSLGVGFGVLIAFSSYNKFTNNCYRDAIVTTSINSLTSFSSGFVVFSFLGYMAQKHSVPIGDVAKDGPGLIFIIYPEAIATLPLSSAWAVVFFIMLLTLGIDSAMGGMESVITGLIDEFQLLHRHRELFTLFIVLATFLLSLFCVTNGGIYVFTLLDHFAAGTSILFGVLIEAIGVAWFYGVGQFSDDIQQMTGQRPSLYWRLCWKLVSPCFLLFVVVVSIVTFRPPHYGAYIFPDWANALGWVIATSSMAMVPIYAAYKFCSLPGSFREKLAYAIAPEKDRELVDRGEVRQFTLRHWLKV
Sequence of Prostaglandin G/H synthase 1 (P23219 whole entry): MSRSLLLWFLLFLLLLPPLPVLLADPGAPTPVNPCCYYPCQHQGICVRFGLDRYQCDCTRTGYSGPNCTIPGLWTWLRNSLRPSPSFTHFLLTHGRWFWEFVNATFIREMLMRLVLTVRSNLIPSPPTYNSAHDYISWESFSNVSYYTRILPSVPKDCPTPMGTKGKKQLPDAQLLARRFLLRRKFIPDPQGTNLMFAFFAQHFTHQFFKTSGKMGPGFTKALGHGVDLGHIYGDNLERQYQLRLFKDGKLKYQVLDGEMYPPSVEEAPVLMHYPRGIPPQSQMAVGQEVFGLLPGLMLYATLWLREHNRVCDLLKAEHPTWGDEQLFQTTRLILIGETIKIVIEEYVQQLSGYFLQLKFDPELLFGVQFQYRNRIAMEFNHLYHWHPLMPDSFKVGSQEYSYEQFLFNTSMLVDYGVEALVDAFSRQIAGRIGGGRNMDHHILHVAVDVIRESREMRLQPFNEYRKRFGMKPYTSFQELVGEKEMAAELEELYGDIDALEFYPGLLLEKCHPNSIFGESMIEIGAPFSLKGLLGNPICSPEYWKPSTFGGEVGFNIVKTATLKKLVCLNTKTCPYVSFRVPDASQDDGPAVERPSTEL
Sequence of 5-hydroxytryptamine receptor 2B (P41595 whole entry): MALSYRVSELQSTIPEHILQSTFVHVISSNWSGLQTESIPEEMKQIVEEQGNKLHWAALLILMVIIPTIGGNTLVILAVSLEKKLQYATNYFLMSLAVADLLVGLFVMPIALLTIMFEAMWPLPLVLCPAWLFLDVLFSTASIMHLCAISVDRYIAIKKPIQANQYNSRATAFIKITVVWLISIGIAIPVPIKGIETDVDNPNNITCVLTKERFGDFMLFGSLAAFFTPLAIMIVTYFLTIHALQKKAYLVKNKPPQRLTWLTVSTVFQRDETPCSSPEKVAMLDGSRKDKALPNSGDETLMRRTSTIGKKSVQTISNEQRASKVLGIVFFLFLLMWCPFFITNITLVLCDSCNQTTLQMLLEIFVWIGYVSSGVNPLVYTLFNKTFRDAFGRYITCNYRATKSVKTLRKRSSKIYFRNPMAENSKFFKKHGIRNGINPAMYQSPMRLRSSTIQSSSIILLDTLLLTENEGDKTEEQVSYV
Sequence of Voltage-gated inwardly rectifying potassium channel KCNH2 (Q12809 whole entry): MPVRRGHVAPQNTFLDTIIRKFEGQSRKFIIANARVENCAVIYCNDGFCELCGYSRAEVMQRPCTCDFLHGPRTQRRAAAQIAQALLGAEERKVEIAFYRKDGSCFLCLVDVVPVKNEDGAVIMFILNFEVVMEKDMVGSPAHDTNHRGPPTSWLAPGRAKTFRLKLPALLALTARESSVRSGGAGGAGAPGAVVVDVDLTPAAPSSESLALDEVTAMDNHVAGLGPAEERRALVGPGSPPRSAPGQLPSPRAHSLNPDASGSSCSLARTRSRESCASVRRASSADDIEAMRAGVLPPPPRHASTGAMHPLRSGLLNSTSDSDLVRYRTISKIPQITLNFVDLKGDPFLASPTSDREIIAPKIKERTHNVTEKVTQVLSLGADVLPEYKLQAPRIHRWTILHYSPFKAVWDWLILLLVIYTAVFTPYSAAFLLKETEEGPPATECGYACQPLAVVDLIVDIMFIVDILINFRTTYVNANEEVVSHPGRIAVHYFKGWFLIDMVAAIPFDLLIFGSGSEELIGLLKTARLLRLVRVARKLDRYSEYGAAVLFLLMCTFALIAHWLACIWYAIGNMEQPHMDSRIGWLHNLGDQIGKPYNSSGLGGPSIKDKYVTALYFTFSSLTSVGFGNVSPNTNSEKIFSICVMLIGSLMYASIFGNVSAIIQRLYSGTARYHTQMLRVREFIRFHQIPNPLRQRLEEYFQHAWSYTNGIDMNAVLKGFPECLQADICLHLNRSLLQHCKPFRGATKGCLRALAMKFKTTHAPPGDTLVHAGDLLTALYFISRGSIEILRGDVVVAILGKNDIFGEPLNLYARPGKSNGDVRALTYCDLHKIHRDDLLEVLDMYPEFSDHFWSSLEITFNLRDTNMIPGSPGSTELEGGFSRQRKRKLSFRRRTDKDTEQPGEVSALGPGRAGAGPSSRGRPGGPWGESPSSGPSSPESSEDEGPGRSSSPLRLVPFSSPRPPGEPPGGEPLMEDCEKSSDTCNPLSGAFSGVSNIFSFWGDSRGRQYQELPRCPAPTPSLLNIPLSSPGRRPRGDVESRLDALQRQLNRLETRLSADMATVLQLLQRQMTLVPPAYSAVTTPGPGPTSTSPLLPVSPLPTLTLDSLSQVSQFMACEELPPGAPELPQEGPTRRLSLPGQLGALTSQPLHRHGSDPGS

SMILES | AC50 [1] [µM] | AC50 [2] [µM] | AC50 [3] [µM] | AC50 [4] [µM] | AC50 [5] [µM] | AC50 [6] [µM] | AC50 [7] [µM] | AC50 [8] [µM] | AC50 [9] [µM]
CO/N=C(\C(=O)N[C@@H]1C(=O)N2C(C(=O)OCOC(=O)C(C)(C)C)=C(C)CS[C@H]12)c1csc(N)n1 | > 30 | > 30 | > 30 | > 30 | > 30 | > 30 | > 30 | – | –
NS(=O)(=O)c1cc(-c2nnn[nH]2)c(NCc2cccs2)cc1Cl [AZOSEMIDE] | – | – | – | – | > 30 | – | – | – | –
CCS(=O)(=O)N1CC(CC#N)(n2cc(-c3ncnc4[nH]ccc34)cn2)C1 [BARICITINIB] | > 30 | > 30 | > 30 | > 30 | – | > 30 | > 10 | > 30 | > 10
O=C(Cn1ccnc1[N+](=O)[O-])NCc1ccccc1 [BENZNIDAZOLE] | > 30 | > 30 | > 30 | > 30 | – | > 30 | > 30 | > 30 | –
C[N+](C)(C)CC(=O)O [BETAINE] | – | – | – | – | > 30 | – | – | – | –
CCCC(=O)N1CCCN(c2nc(N)c3cc(OC)c(OC)cc3n2)CC1 [BUNAZOSIN] | – | – | – | – | 4.5 | – | – | – | –
C[N+](C)(C)CCOC(N)=O [CARBAMOYLCHOLINE] | – | – | – | – | > 30 | – | – | – | –
N[C@@H](CSCC(=O)O)C(=O)O [CARBOCYSTEINE] | – | – | – | – | > 30 | – | – | – | –
NCc1ccccc1CC(=O)N[C@@H]1C(=O)N2C(C(=O)O)=C(CSc3nnnn3CC(=O)O)CS[C@H]12 [CEFORANIDE] | > 30 | > 30 | > 30 | > 30 | – | > 30 | > 30 | > 30 | > 30
COCC1=C(C(=O)OC(C)OC(=O)OC(C)C)N2C(=O)[C@@H](NC(=O)/C(=N\OC)c3csc(N)n3)[C@H]2SC1 (some centres not stated) [CEFPODOXIME PROXETIL] | > 30 | > 30 | > 30 | > 30 | > 30 | > 30 | > 30 | > 30 | –
CC(C)(N)Cc1ccc(Cl)cc1 [CHLORPHENTERMINE] | – | – | – | – | > 30 | – | – | – | –
NS(=O)(=O)c1cc2c(cc1Cl)NC(CC1CCCC1)NS2(=O)=O (configuration not stated) [CYCLOPENTHIAZIDE] | > 30 | > 30 | > 30 | > 30 | > 30 | > 30 | > 30 | – | –
CN(C)[C@@H]1C(O)=C(C(N)=O)C(=O)[C@@]2(O)C(O)=C3C(=O)c4c(O)ccc(Cl)c4[C@@H](O)[C@H]3C[C@@H]12 [DEMECLOCYCLINE] | – | – | – | – | > 30 | – | – | – | –
NS(=O)(=O)c1cc(Cl)c(Cl)c(S(N)(=O)=O)c1 [DICHLORPHENAMIDE] | – | – | – | – | > 30 | – | – | – | –
N/N=c1/cc2c(n[nH]1)CCN(C(=O)c1ccccc1)C2 [ENDRALAZINE] | > 30 | > 30 | 22.3 | > 30 | > 30 | > 30 | > 30 | > 30 | –
C=C1C[C@@H]2[C@H](CC[C@]3(C)C(=O)CC[C@@H]23)[C@@]2(C)C=CC(=O)C=C12 [EXEMESTANE] | – | – | – | – | > 30 | – | – | – | –

SMILES | AC50 [1] [µM] | AC50 [2] [µM] | AC50 [3] [µM] | AC50 [4] [µM] | AC50 [5] [µM] | AC50 [6] [µM] | AC50 [7] [µM] | AC50 [8] [µM] | AC50 [9] [µM]
CC(C)=CCC1C(=O)N(c2ccccc2)N(c2ccccc2)C1=O [FEPRAZONE] | > 30 | > 30 | > 30 | > 30 | – | > 30 | > 30 | > 30 | –
CC(C(O)c1ccc(O)cc1)N1CCC(Cc2ccccc2)CC1 (configuration not stated) [IFENPRODIL] | – | – | – | – | 0.67 | – | – | – | –
CC(=O)N(CC(O)CO)c1c(I)c(C(=O)NCC(O)CO)c(I)c(C(=O)NCC(O)CO)c1I (configuration not stated) [IOHEXOL] | – | – | – | – | > 30 | – | – | – | –
CN(CCCN1c2ccccc2CCc2ccccc21)CC(=O)c1ccc(Cl)cc1 [LOFEPRAMINE] | – | – | – | – | 3.3 | – | – | – | –
CCOC(=O)CC(SP(=S)(OC)OC)C(=O)OCC (configuration not stated) [MALATHION] | > 30 | > 30 | > 30 | > 30 | > 30 | > 30 | > 30 | > 30 | > 30
CN1C(=O)N(C)C2C1N(C)C(=O)N2C (configuration not stated) [MEBICAR] | > 30 | > 30 | > 30 | > 30 | > 30 | > 30 | > 30 | > 30 | –
CC(=O)O[C@]1(C(C)=O)CC[C@H]2[C@@H]3C[C@H](C)C4=CC(=O)CC[C@]4(C)[C@H]3CC[C@@]21C [MEDROXYPROGESTERONE ACETATE] | > 30 | 21.2 | > 30 | > 30 | > 30 | > 30 | > 30 | – | > 30
CN(C/C=C/c1ccccc1)Cc1cccc2ccccc12 [NAFTIFINE] | – | – | – | – | 2.02 | – | – | – | –
NC(=O)c1cccc2cn(-c3ccc([C@@H]4CCCNC4)cc3)nc12 [NIRAPARIB] | > 30 | 14.4 | > 30 | 0.113 | > 30 | > 30 | > 30 | > 30 | > 30
CC(C)NCC1CCc2cc(CO)c([N+](=O)[O-])cc2N1 (configuration not stated) [OXAMNIQUINE] | – | – | – | – | > 30 | – | – | – | –
Nc1ccc(/N=N/c2ccccc2)c(N)n1 [PHENAZOPYRIDINE] | > 30 | > 30 | 24.9 | 4.71 | 14 | > 30 | 28.4 | > 30 | –
CN(C)CCCN1c2ccccc2Sc2ccccc21 [PROMAZINE] | – | – | – | – | 8.1 | – | – | – | –
O=C(O)CCn1c2c(c3ccccc31)C[C@H](NS(=O)(=O)c1ccc(F)cc1)CC2 [RAMATROBAN] | > 30 | > 30 | > 30 | > 30 | > 30 | > 30 | 0.04 | > 10 | > 30
O=P(O)(O)C(O)(Cc1cccnc1)P(=O)(O)O [RISEDRONIC ACID] | – | – | – | – | > 30 | – | – | – | –
COc1cc(NCc2ccc3nc(N)nc(N)c3c2C)cc(OC)c1OC [TRIMETREXATE] | > 30 | 3.6 | 2.4 | 9.54 | 2.16 | > 30 | > 30 | 23 | > 30
CC(=O)N[C@H]1[C@H]([C@H](O)[C@H](O)CO)OC(C(=O)O)=C[C@@H]1N=C(N)N [ZANAMIVIR] | – | – | – | – | > 30 | – | – | – | –
